19 molecules from patent US20240262815A1, “HETEROARYL DERIVATIVE, METHOD FOR PREPARING SAME, AND PHARMACEUTICAL COMPOSITION COMPRISING SAME AS ACTIVE INGREDIENT” (VORONOI INC., priority 2021, published 2024) can be followed below.

The subject of this experiment is SK-BR-3 cancer cells. In words: Inhibitory activity against proliferation of SK-BR-3 cancer cells (CellTiter-Glo). The experiment is classed as cell-based. Conditions: ErbB2-overexpressing SK-BR-3 cells, 120 hours after treatment. Here is the method: To evaluate the inhibitory activity of a compound according to the present invention against the proliferation of ErbB2-overexpressing cancer cells, the following experiment were performed.
10% FBS-added McCOY'S 5A was used for SK-BR-3 cancer cells. 20% FBS-added RPMI-1640 was used for BT-474 cancer cells. Transduced Ba/F3 cells were cultured in a RPMI-1640 medium to which 1 μg/ml puromycin (Invitrogen) was added.
48 hours before compound treatment, each type of the SK-BR-3 and BT-474 cells were seeded at 5,000 cells/well in a white clear bottom 96 well plate (Corning). The compound was diluted in dimethyl sulfoxide (SK-BR-3: 3-fold dilution, a total of 12 concentrations, BT-474: […], a total of 12 concentrations) and injected at 1 μl to have the final concentration of 0.2 nM to 5 μM. As for measurement of live cells, 120 hours after treatment with the compound, a CellTiter-Glo luminescent cell-viability reagent (Promega) was used to store the cells at room temperature for 10 minutes, followed by measurement of luminescence using a reader (SynergyNeo, Biotek). Each test was repeated three times.
The result values were calculated as a cell growth rate (%) compared to the control group. A graph was plotted using the GraphPad Prism version 8.3.0 program, and GI50 values were calculated.
For orientation: Cellular ATP, detected with luciferase, serves as a proxy for viable cell number.

Usually GI50 stands for the concentration giving 50% growth inhibition. In the case of `C=CC(=O)Nc1cc(Nc2cc(N3OCCC3c3cccc(-c4cccc(F)c4)c3)ncn2)c(OC)cc1N(C)CCN(C)C` (stereo not shown) [Example 212, N-(2-((2-(dimeth-yl-amino)ethyl)-(methyl)amino)-5-((6-(3-(3′-fluoro-[1,1′-biphenyl]-3-yl)isoxazolidin-2-yl)pyrimidin-4-yl)amino)-4-meth-oxyphenyl)acryl-amide], the GI50 was in the range of 50 to 500 nM.

Take `C=CC(=O)Nc1cc(Nc2cc(N3OCCC3c3cccc(-c4ccc(C)s4)c3)ncn2)c(OC)cc1N1CCN(C)CC1` (stereo not shown) [Example 214, N-(4-methoxy-2-(4-methylpiper-azin-1-yl)-5-((6-(3-(3-(5-methyl-thiophen-2-yl)-phenyl)isoxazol-idin-2-yl)pyrim-idin-4-yl)amino)-phenyl)acrylamide]: the GI50 (Homo sapiens, SK-BR-3, 120 h) is 50 to 500 nM.

As to `C=CC(=O)Nc1cc(Nc2cc(N3OCC[C@@H]3c3cccc(-c4ccccc4)c3)ncn2)c(OC)cc1N1CCN(C(C)=O)CC1` [Example 215, (R)-N-(5-((6-(3-([1,1′-biphenyl]-3-yl)isoxazolidin-2-yl)pyrimidin-4-yl)-amino)-2-(4-acetyl-piperazin-1-yl)-4-methoxyphenyl)-acrylamide], under “Homo sapiens, SK-BR-3, 120 h”, the concentration for 50% growth inhibition (GI50) was less than 50 nM.

For the molecule `C=CC(=O)Nc1cc(Nc2cc(N3OCC[C@@H]3c3cc(F)cc(Oc4ccn(C)n4)c3)ncn2)c(OC)cc1N1CCN(C)CC1` [Example 217, (R)-N-(5-((6-(3-(3-fluoro-5-((1-methyl-1H-pyr-azol-3-yl)oxy)-phenyl)isoxazol-idin-2-yl)pyrim-idin-4-yl)amino)-4-methoxy-2-(4-methylpiperazin-1-yl)phenyl)-acrylamide], the GI50 (Homo sapiens, SK-BR-3, 120 h) fell in the range of 50 to 500 nM.

For `C=CC(=O)Nc1cc(Nc2cc(N3OCC[C@@H]3c3cc(F)cc(Oc4ccn(C)n4)c3)ncn2)c(OC)cc1N(C)CCN(C)C` [Example 218, (R)-N-(2-((2-(dimethylamino)-ethyl)(methyl)-amino)-5-((6-(3-(3-fluoro-5-((1-methyl-1H-pyr-azol-3-yl)oxy)-phenyl)isoxazol-idin-2-yl)pyrim-idin-4-yl)amino)-4-methoxyphen-yl)acrylamide], the concentration for 50% growth inhibition (GI50) (Homo sapiens, SK-BR-3, 120 h) is less than 50 nM.

Turning to `C=CC(=O)Nc1cc(Nc2cc(N3OCC[C@@H]3c3cc(F)cc(Oc4cccc(F)c4)c3)ncn2)c(OC)cc1N1CCN(CC)CC1` [Example 220, (R)-N-(2-(4-ethyl-piperazin-1-yl)-5-((6-(3-(3-fluoro-5-(3-fluorophenoxy)-phenyl)isoxazol-idin-2-yl)pyrim-idin-4-yl)amino)-4-methoxyphen-yl)acrylamide], for the setting “Homo sapiens, SK-BR-3, 120 h”, the 50% growth inhibitory concentration (GI50) was less than 50 nM.

Consider `C=CC(=O)Nc1cc(Nc2cc(N3OCC[C@@H]3c3cc(F)cc(Oc4cccc(F)c4)c3)ncn2)c(OC)cc1N1CCOCC1` [Example 222, (R)-N-(5-((6-(3-(3-fluoro-5-(3-fluorophenoxy)-phenyl)isoxazol-idin-2-yl)pyrim-idin-4-yl)amino)-4-methoxy-2-morpholinophen-yl)acrylamide], for which the concentration for 50% growth inhibition (GI50) (Homo sapiens, SK-BR-3, 120 h) is less than 50 nM.

Regarding `C=CC(=O)Nc1cc(Nc2cc(N3OCC[C@@H]3c3cccc(Oc4cc(F)cc(F)c4)c3)ncn2)c(OC)cc1N(C)CCN(C)C` [Example 226, (R)-N-(5-((6-(3-(3-(3,5-difluoro-phenoxy)phenyl)-isoxazolidin-2-yl)-pyrimidin-4-yl)-amino)-2-((2-(dimethylamino)-ethyl)(methyl)-amino)-4-methoxy-phenyl)acrylamide], the GI50 (Homo sapiens, SK-BR-3, 120 h) was less than 50 nM.

`C=CC(=O)Nc1cc(Nc2cc(N3OCC[C@H]3c3cccc(OCc4cccc(F)c4)c3)ncn2)c(OC)cc1N(C)CCN(C)C` [Example 229, (S)-N-(2-((2-(dimethylamino)-ethyl)(methyl)-amino)-5-((6-(3-(3-((3-fluorobenz-yl)oxy)phenyl)-isoxazolidin-2-yl)-pyrimidin-4-yl)-amino)-4-methoxy-phenyl)acrylamide]: under “Homo sapiens, SK-BR-3, 120 h”, the 50% growth inhibitory concentration (GI50) lay in the range of 50 to 500 nM.

Take `C=CC(=O)Nc1cc(Nc2cc(N3OCC[C@@H]3c3cccc(-c4ccccc4)c3)ncn2)c(OC)cc1N1CCN(CCC)CC1` [Example 230, (R)-N-(5-((6-(3-([1,1′-biphenyl]-3-yl)isoxazolidin-2-yl)pyrimidin-4-yl)-amino)-4-methoxy-2-(4-propylpiper-azin-1-yl)phenyl)-acrylamide]: the GI50 (Homo sapiens, SK-BR-3, 120 h) is less than 50 nM.

For `C=CC(=O)Nc1cc(Nc2cc(N3OCCC3c3cccc(-c4cnn(C)c4)c3)ncn2)c(OC)cc1N1CCN(C)CC1` (stereo not shown) [Example 232, N-(4-methoxy-5-((6-(3-(3-(1-meth-yl-1H-pyrazol-4-yl)phenyl)isoxazol-idin-2-yl)pyrim-idin-4-yl)amino)-2-(4-methylpiper-azin-1-yl)phenyl)-acrylamide], under “Homo sapiens, SK-BR-3, 120 h”, the GI50 is less than 50 nM.

As to `C=CC(=O)Nc1cc(Nc2cc(N3OCCC3c3cccc(-c4cnn(C)c4)c3)ncn2)c(OC)cc1N1CCC(N2CCN(C3CC3)CC2)CC1` (stereo not shown) [Example 234, N-(2-(4-(4-cyclo-propylpiperazin-1-yl)piperidin-1-yl)-4-methoxy-5-((6-(3-(3-(1-methyl-1H-pyrazol-4-yl)-phenyl)isoxazol-idin-2-yl)pyrim-idin-4-yl)amino)-phenyl)acrylamide], the GI50 (Homo sapiens, SK-BR-3, 120 h) was less than 50 nM.

As for `C=CC(=O)Nc1cc(Nc2cc(N3OCCC3c3cccc(-c4cnc5cccnn45)c3)ncn2)c(OC)cc1N(C)CCN(C)C` (stereo not shown) [Example 235, N-(2-((2-(dimeth-ylamino)ethyl)-(methyl)amino)-5-((6-(3-(3-(imidazo[1,2-b]-pyridazin-3-yl)-phenyl)isoxazol-idin-2-yl)pyrim-idin-4-yl)amino)-4-methoxyphen-yl)acrylamide], the concentration for 50% growth inhibition (GI50) (Homo sapiens, SK-BR-3, 120 h) was less than 50 nM.

On to `C=CC(=O)Nc1cc(Nc2cc(N3OCCC3c3cccc(-c4cccc(C(F)(F)F)c4)c3)ncn2)c(OC)cc1N(C)CCN(C)C` (stereo not shown) [Example 236, N-(2-((2-(dimeth-ylamino)ethyl)-(methyl)amino)-4-methoxy-5-((6-(3-(3′-(trifluorometh-yl)-[1,1′-biphenyl]-3-yl)isoxazolidin-2-yl)pyrimidin-4-yl)amino)phenyl)-acrylamide], for which, where the note is “Homo sapiens, SK-BR-3, 120 h”, the GI50 is less than 50 nM.

For the molecule `C=CC(=O)Nc1cc(Nc2cc(N3OCCC3c3cccc(-c4cccc(C(F)(F)F)c4)c3)ncn2)c(OC)cc1N1CCN(C)CC1` (stereo not shown) [Example 237], the 50% growth inhibitory concentration (GI50) (Homo sapiens, SK-BR-3, 120 h) was in the range of 50 to 500 nM.

For `C=CC(=O)Nc1cc(Nc2cc(N3OCCC3c3cccc(-c4nccs4)c3)ncn2)c(OC)cc1N(C)CCN(C)C` (stereo not shown) [Example 238, N-(2-((2-(dimeth-ylamino)ethyl)-(methyl)amino)-4-methoxy-5-((6-(3-(3-(thiazol-2-yl)-phenyl)isoxazol-idin-2-yl)pyrim-idin-4-yl)amino)-phenyl)acrylamide], the GI50 (Homo sapiens, SK-BR-3, 120 h) is less than 50 nM.

For the molecule `C=CC(=O)Nc1cc(Nc2cc(N3OCC[C@@H]3c3cc(F)cc(-c4cccc(N(C)C)c4)c3)ncn2)c(OC)cc1N(C)CCN(C)C` [Example 239], for the setting “Homo sapiens, SK-BR-3, 120 h”, the concentration for 50% growth inhibition (GI50) was less than 50 nM.

Turning to `C=CC(=O)Nc1cc(Nc2cc(N3OCC[C@@H]3c3cc(F)cc(-c4ncnn4C)c3)ncn2)c(OC)cc1N(C)CCN(C)C` [Example 240, (R)-N-(2-((2-(dimethylamino)-ethyl)(methyl)-amino)-5-((6-(3-(3-fluoro-5-(1-methyl-1H-1,2,4-triazol-5-yl)phen-yl)-isoxazolidin-2-yl)pyrimidin-4-yl)-amino)-4-methoxy-phen-yl)acrylamide], the GI50 (Homo sapiens, SK-BR-3, 120 h) was less than 50 nM.

For the molecule `C=CC(=O)Nc1cc(Nc2cc(N3OCC[C@H]3c3cccc(-c4cccc(F)c4)c3)ncn2)c(OC)cc1N1CCN(C)CC1` [Example 241, (S)-N-(5-((6-(3-(3′-fluoro-[1,1′-biphenyl]-3-yl)-isoxazolidin-2-yl)-pyrimidin-4-yl)-amino)-4-methoxy-2-(4-methylpiper-azin-1-yl)phenyl)-acrylamide], the GI50 (Homo sapiens, SK-BR-3, 120 h) lay in the range of 500 to 5000 nM.
